Reference: publication PMC12299554 (Pharmaceuticals, 2025)

Key:
[1] = target: BChE (EC 3.1.1.8, equine serum) (Equus caballus, UniProt P81908); assay: biochemical
[2] = system: LPS-stimulated TNF-α production in human peripheral blood mononuclear cells (PBMCs); assay: Inhibition of LPS-stimulated TNF-α production in PBMCs (ELISA); details: for Inhibition of LPS-stimulated TNF-α production (in words): human PBMCs, three-fold dilutions starting at 100 µM; for IC50: Homo sapiens, PBMC, 24 h, read-out: IC50 of LPS-stimulated TNF-α production
[3] = target: T1, AChE (EC 3.1.1.7, Electrophorus electricus, Type V-S) (Electrophorus electricus, UniProt O42275); assay: biochemical; details: mean of three measurements ± standard deviation
T1 construct: purchased Sigma-Aldrich Type V-S
Protocol: All measurements were conducted in triplicate. […] The selectivity index is calculated as IC50(AChE)/IC50(BChE).

PBMCs = assay: Cell viability of LPS-stimulated PBMCs (CellTiter-Glo); format: cell-based; details: human PBMCs, 24 h; three-fold dilutions starting at 100 µM

Chain of BChE (EC 3.1.1.8, equine serum) (P81908 whole entry): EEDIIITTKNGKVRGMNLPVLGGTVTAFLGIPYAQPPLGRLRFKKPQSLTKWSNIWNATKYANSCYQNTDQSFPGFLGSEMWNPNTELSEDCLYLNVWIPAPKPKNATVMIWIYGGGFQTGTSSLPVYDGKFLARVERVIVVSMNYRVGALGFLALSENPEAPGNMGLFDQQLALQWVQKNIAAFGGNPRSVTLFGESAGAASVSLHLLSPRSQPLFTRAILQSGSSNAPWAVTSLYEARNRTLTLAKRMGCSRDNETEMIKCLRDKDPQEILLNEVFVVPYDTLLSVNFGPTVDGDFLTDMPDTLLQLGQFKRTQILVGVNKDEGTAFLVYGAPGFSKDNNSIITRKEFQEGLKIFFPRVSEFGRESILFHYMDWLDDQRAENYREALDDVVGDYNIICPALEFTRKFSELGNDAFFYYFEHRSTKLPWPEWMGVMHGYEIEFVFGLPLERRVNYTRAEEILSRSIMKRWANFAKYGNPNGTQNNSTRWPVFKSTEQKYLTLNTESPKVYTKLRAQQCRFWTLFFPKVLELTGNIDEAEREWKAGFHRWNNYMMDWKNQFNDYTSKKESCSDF
T1 sequence (O42275 24-633): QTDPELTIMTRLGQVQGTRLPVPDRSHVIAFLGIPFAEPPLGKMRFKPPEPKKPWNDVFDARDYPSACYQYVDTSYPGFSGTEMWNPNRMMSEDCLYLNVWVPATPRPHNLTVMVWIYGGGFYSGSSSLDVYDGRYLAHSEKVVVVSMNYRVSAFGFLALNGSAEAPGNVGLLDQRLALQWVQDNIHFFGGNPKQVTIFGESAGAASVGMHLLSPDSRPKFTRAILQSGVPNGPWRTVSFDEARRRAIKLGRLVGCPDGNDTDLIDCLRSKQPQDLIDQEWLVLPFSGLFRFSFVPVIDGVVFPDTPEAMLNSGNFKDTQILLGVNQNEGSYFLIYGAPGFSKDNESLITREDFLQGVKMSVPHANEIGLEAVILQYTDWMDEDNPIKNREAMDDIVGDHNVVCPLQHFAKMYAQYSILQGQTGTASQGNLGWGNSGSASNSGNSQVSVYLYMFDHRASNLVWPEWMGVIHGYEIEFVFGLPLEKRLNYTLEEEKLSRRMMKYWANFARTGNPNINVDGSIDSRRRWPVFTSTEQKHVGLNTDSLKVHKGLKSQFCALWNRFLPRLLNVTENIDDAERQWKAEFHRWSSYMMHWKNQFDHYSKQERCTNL

Structure (SMILES) | IC50 [1] | Inhibition of LPS-stimulated TNF-α production (in words) [2] | IC50 [3] | Effect on cell viability (in words) (PBMCs) | IC50 [2]
Cc1ccc(C[n+]2nn(Cc3ccc(Cl)cc3)c3c4ccsc4ccc32)cc1.[Br-] [Compound 1, 1-(4-chlorobenzyl)-3-(4-methylbenzyl)-1H-thieno[3′,2′:3,4]benzo[1,2-d][1,2,3]triazol-3-ium bromide] | 2.55 ± 0.58 µM | did not inhibit TNF-α production | 12.7 ± 1.85 µM | decreased cell viability | 
Clc1ccc(Cn2n[n+](Cc3ccc(Cl)cc3)c3ccc4sccc4c32)cc1.[Br-] [Compound 2, 1,3-bis(4-chlorobenzyl)-1H-thieno[3′,2′:3,4]benzo[1,2-d][1,2,3]triazol-3-ium bromide] | 4.99 ± 1.1 µM | did not inhibit TNF-α production | 10.7 ± 1.46 µM | decreased cell viability | 
Cc1cc2c(ccc3c2n(Cc2ccc(Cl)cc2)n[n+]3Cc2ccc(Cl)cc2)s1.[Br-] [Compound 3, 1,3-bis(4-chlorobenzyl)-7-methyl-1H-thieno[3′,2′:3,4]benzo[1,2-d][1,2,3]triazol-3-ium bromide] | 7.6 ± 0.82 µM | did not inhibit TNF-α production at any tested concentrations | 8.89 ± 3.26 µM |  | 
Clc1cccc(Cn2n[n+](Cc3ccccc3)c3ccc4sccc4c32)c1.[Br-] [Compound 4, 3-benzyl-1-(3-chlorobenzyl)-1H-thieno[3′,2′:3,4]benzo[1,2-d][1,2,3]triazol-3-ium bromide] |  | did not inhibit TNF-α production |  | decreased cell viability | 
Cc1ccc(C[n+]2nn(Cc3cccc(Cl)c3)c3c4ccsc4ccc32)cc1.[Br-] [Compound 5, 1-(3-chlorobenzyl)-3-(4-methylbenzyl)-1H-thieno[3′,2′:3,4]benzo[1,2-d][1,2,3]triazol-3-ium bromide] | 8.13 ± 0.83 µM | did not inhibit TNF-α production | 55.6 ± 2.36 µM | decreased cell viability | 
Clc1ccc(C[n+]2nn(Cc3cccc(Cl)c3)c3c4ccsc4ccc32)cc1.[Br-] [Compound 6, 1-(3-chlorobenzyl)-3-(4-chlorobenzyl)-1H-thieno[3′,2′:3,4]benzo[1,2-d][1,2,3]triazol-3-ium bromide] | 0.96 ± 0.14 µM | did not inhibit TNF-α production at any tested concentrations | 12.9 ± 0.87 µM |  | 
O=[N+]([O-])c1ccc(C[n+]2nn(Cc3cccc(Cl)c3)c3c4ccsc4ccc32)cc1.[Br-] [Compound 7, 1-(3-chlorobenzyl)-3-(4-nitrobenzyl)-1H-thieno[3′,2′:3,4]benzo[1,2-d][1,2,3]triazol-3-ium bromide] | 10 ± 1.64 µM | did not inhibit TNF-α production at any tested concentrations | 11.4 ± 0.39 µM |  | 
Fc1cccc(Cn2n[n+](Cc3ccccc3)c3ccc4sccc4c32)c1.[Br-] [Compound 8, 3-benzyl-1-(3-fluorobenzyl)-1H-thieno[3′,2′:3,4]benzo[1,2-d][1,2,3]triazol-3-ium bromide] | 4.52 ± 0.17 µM | did not inhibit TNF-α production | 22.2 ± 2.83 µM | decreased cell viability | 
Cc1ccc(C[n+]2nn(Cc3cccc(F)c3)c3c4ccsc4ccc32)cc1.[Br-] [Compound 9, 1-(3-fluorobenzyl)-3-(4-methylbenzyl)-1H-thieno[3′,2′:3,4]benzo[1,2-d][1,2,3]triazol-3-ium bromide] | 0.363 ± 0.038 µM |  | 4.8 ± 0.71 µM | affected cell viability at the three highest concentrations tested | 0.66 µM
Fc1cccc(Cn2n[n+](Cc3ccc(Cl)cc3)c3ccc4sccc4c32)c1 [Compound 10, 3-(4-chlorobenzyl)-1-(3-fluorobenzyl)-1H-thieno[3′,2′:3,4]benzo[1,2-d][1,2,3]triazol-3-ium bromide] | 2.45 ± 0.43 µM |  | 9.96 ± 0.42 µM |  | 
Cc1cccc(Cn2n[n+](Cc3ccc(Cl)cc3)c3ccc4sccc4c32)c1 [Compound 11, 3-(4-chlorobenzyl)-1-(3-methylbenzyl)-1H-thieno[3′,2′:3,4]benzo[1,2-d][1,2,3]triazol-3-ium bromide] | 1.11 ± 0.77 µM |  | 6.23 ± 0.58 µM |  | 
COc1ccc(Cn2n[n+](Cc3ccc(C)cc3)c3ccc4sccc4c32)cc1 [Compound 12, 1-(4-methoxybenzyl)-3-(4-methylbenzyl)-1H-thieno[3′,2′:3,4]benzo[1,2-d][1,2,3]triazol-3-ium bromide] | 3.98 ± 1.25 µM |  | 11.8 ± 2.15 µM |  | 
COc1ccc(Cn2n[n+](Cc3ccc(Cl)cc3)c3ccc4sccc4c32)cc1 [Compound 13, 3-(4-chlorobenzyl)-1-(4-methoxybenzyl)-1H-thieno[3′,2′:3,4]benzo[1,2-d][1,2,3]triazol-3-ium bromide] | 4.05 ± 1.05 µM |  | 7.4 ± 0.94 µM |  | 
C=CCn1n[n+](Cc2ccccc2)c2ccc3sccc3c21 [Compound 14, 1-allyl-3-benzyl-1H-thieno[3′,2′:3,4]benzo[1,2-d][1,2,3]triazol-3-ium bromide] | 0.098 ± 0.018 µM |  | 2.13 ± 0.13 µM |  | 
CC=Cn1n[n+](Cc2ccccc2)c2ccc3sccc3c21 [Compound 15, 3-benzyl-1-(prop-1-en-1-yl)-1H-thieno[3′,2′:3,4]benzo[1,2-d][1,2,3]triazol-3-ium bromide] | 0.732 ± 0.137 µM |  | 3.62 ± 0.42 µM |  | 
C[C@@H]1C[C@H]2[C@@H]3CCC4=CC(=O)C=C[C@]4(C)[C@@]3(F)[C@@H](O)C[C@]2(C)[C@@]1(O)C(=O)CO [dexamethasone, reference compound] |  |  |  |  | 0.0046 µM
